This note sets out measurements from patent publication US11123398B2, “Chemotherapeutic combinations of cationic antimicrobial peptides and chemotherapeutics” (LYTIX BIOPHARMA AS, priority 2014, dated 2021).

The subject of assay [1] is A375 cells. Kind of assay: Release of HMGB1 (Western blot). The class given is cell-based, human. As to conditions: 35 μM, up to 60 min. The method, then: A375 cells were seeded with 3×10^5 cells/well in 6-well plates in a complete media, and allowed to adhere overnight. Cells were treated with LTX-315 or LTX-328 at 35 μM, and incubated at 37° C. and 5% CO2 for different time points (5, 10, 15, 30, 60 min), and negative controls were serum-free RPMI-1650. Supernatants (S) were collected and centrifuged at 1,400 g for five minutes, and cell lysates (L) were harvested after washing with PBS twice and then subsequently lysed using a 4× Sample buffer (Invitrogen, number), 0.1 M DTT (Sigma number) and water. Supernatants were concentrated using Amicon Ultra 50K centrifugal filters (Millipore UFC505024), and the cell lysate was sonicated. Both supernatants and lysate were boiled and resolved in a 10% sodium dodecyl sulfate polyacrylamide gel electrophoresis (SDS-PAGE), and then electro transferred to a polyvindiline difluoride (PVDF) membrane (Millipore). The membrane was blocked in 5% milk and incubated with the HMGB1 antibody (rabbit, polyclonal, abcam ab 18256); the membrane was then rinsed several times with TBST, incubated with a horseradish peroxidase (HRP)-conjugated secondary antibody (abcam ab6721), rinsed again with TBST and then developed using WB Luminol Reagent (Santa Cruz Biotechnology, Heidelberg, Germany).
In general terms: In western blotting, separated proteins are transferred to a membrane and probed.

The next assay relates to HL-60/ADR. Kind of assay: MTS cytotoxicity assay, HL-60/ADR. As to conditions: IC50 resistant / IC50 sensitive line; doxorubicin resistance. The class given is cell-based, human. The method, then:
Tumor cells were plated in 96-well flat-bottom microtitration plates (Nunc, Dutscher, Brumath, France) and incubated at 37° C. for 24 hours before treatment in 190 μl of drug-free culture medium supplemented or not with 10% FBS for adherent or suspension growing cell lines, respectively.
The adherent cell lines were washed once with 200 μl FBS-free culture medium before treatment. Tumor cells were incubated for 4 hours with 10 concentrations of compounds in ¼ dilution step with a top dose of 400 μM (range 4×10^−4 to 4×10^−10 M), with 1% (final concentration) Triton X-100 as positive control and FBS-free culture medium as negative control. The cells (190 μl) were incubated in a 200 μl final volume of FBS-free culture medium containing test substances at 37° C. under 5% CO2.
Three independent experiments were performed, each concentration being tested in quadruplicate. Control cells were treated with vehicle alone. At the end of treatments, the cytotoxic activity was evaluated by a MTS assay (see § 3.3.).
Like MTT, MTS is bioreduced by cells into a formazan product that is directly soluble in culture medium without processing, unlike MTT.
At the end of the cells treatment, 40 μl of a 0.22 μm filtered freshly combined solution of MTS (20 ml at 2 mg/ml, Ref G1111, Batch 235897, Exp March 2009, Promega, Charbonnières, France) and PMS (1 ml at 0.92 mg/ml, Ref P9625, Batch 065K0961, Sigma) in Dulbecco's Phosphate Buffered Saline (DPBS, Ref 17-513Q, Batch 6MB0152, Cambrex), were added in each well. Culture plates were incubated for 2 h at 37° C. Absorbency (OD) were measured at 490 nm in each well using VICTOR^3™ 1420 multilabeled counter (Wallac, PerkinElmer, Courtaboeuf, France).
IC50: drug concentration to obtain a 50% inhibition of cell proliferation.
The dose-response curves were plotted using XLFit 3 (IDBS, United Kingdom). The IC50 determination values were calculated using the XLFit 3 software from semi-log curves. Individual IC50 determination values as well as mean and SD values were generated.
Resistance index was calculated using the following formula: […]
Resistance index was calculated for each compound for each couple of sensitive and resistant cell lines. Individual resistance index was calculated when IC50 values of both sensitive and corresponding resistant cell lines were determined within same experiment. In addition, resistance index was also calculated ratio of mean IC50 values obtained during three independent experiments.
Background: Tetrazolium assays rely on reduction of a dye to a coloured formazan, in cell work by metabolically active cells.

The subject of assay [2] is A375 cells. Kind of assay: Release of cytochrome-C (ELISA). The class given is cell-based, human. As to conditions: 35 μM, 5, 15, 45 min. The method, then:
A375 cells were seeded as with HMGB1 studies, and treated with 35 μM for different time points (5, 15, 45). Supernatants were collected and concentrated as with HMGB1 studies, and samples from the supernatants were analyzed using a 4.5 hour solid form Cytochrome C—Elisa kit (R&D Systems, USA, #DCTCO) following the manufacturer's description. Shortly thereafter, a 50% diluted sample was analyzed and the optical density was determined using a microplate reader set at 450 nm, and this reading was then subtracted from the reading at 540 nm. A standard curve was generated for each set of samples assayed. Samples were run in four parallels, and the cytochrome-c released into the supernatant was expressed as a fold over the level of cytochrome-c in the supernatant of untreated cells.
For orientation: ELISA stands for enzyme-linked immunosorbent assay.

Assay [3] deals with A375 cells. Kind of assay: TEM electron microscopy, A375. The class given is cell-based, human. The method, then: A375 cells were seeded at 1×10^5 cells per well in 6-well plates and allowed to grow for three days to optimize membrane structures in the culture, and the media was changed on the second day. Cells were washed twice in serum-free RPMI before being treated with LTX-315 dissolved in serum-free RPMI at 5, 10 and 25 μg/ml, with serum-free RPMI as a negative control. Cells were then washed with PBS twice before fixation for 24 hours in 4° C. with 4% formaldehyde and 1% gluteralaldehyde in a Hepes buffer at pH 7.8. Dehydration and post-fixation protocols included incubation in a 5% buffered tannic acid and incubation in a 1% osmium-reduced ferrocyanide. Ultrathin sections were prepared, and uranyl acetate (5%) and Reynolds's lead citrate were used for staining and contrasting. Samples were examined on a JEOL JEM-1010 transmission electron microscope, and images were taken with an Olympus Morada side-mounted TEM CCD camera (Olympus soft imaging solutions, GmbH, Germany).

Another assay relates to human A547 cells. Kind of assay: TEM, A547 cells. As to conditions: 10 μg/ml, 60 minutes. The class given is cell-based.

Each structure is given as a SMILES string. Non-standard residues stand in square brackets, D forms with d. Residues, ends and D or L forms follow the SMILES beside them. Dip = N[C@H](C(=O)O)C(c1ccccc1)c1ccccc1

Turning to `NCCCC[C@H](NC(=O)[C@@H](NC(=O)[C@H](Cc1c[nH]c2ccccc12)NC(=O)[C@H](CCCCN)NC(=O)[C@H](CCCCN)NC(=O)[C@H](Cc1c[nH]c2ccccc12)NC(=O)[C@H](Cc1c[nH]c2ccccc12)NC(=O)[C@H](CCCCN)NC(=O)[C@@H](N)CCCCN)C(c1ccccc1)c1ccccc1)C(N)=O` [LTX-315, K-K-W-W-K-K-W-Dip-K-NH2] (H-KKWWKKW[Dip]K-NH2), in the assay on A375 cells [1], the “HMGB1 translocation from cell lysate to supernatant” value was “gradual translocation from the cell lysate to the supernatant detected”. The “Resistance index (RI), HL-60/ADR” value in the assay with HL-60/ADR was 1.45. The “Cytochrome-C in the supernatant compared to untreated control cells” value in the assay with A375 cells [2] is “three times more”. Besides, in the assay on A375 cells [3] (3.5 μM, 60 minutes), the “Cells displaying vacuolization (TEM)” value is “approximately 20%” and the “Number of necrotic cells (TEM)” value is recorded as “less than 5%”. In the assay with A375 cells [3] (17 μM, 60 min), the “Cells displaying vacuolization (TEM)” value came to 4% and the “Cells with necrotic morphology, loss of plasma membrane integrity (TEM)” value was “approximately 40%”. In the assay with human A547 cells, the “Effect on mitochondrial membrane (TEM)” value is on record as “disintegration of the mitochondrial membrane”.
